What was measured:
[1] = system: RIvA DLBCL model; assay: Western blot of treated cells; format: cell-based; details: increasing concentration of voruciclib, single agent
Method: Cell lines shown in Table 1, adherent or suspension, were treated in 6-well dishes or T10 flasks respectively, seeded at one million per ml density prior to treatment in total volumes of 3-10 ml. All agents used for in vitro cell treatments were formulated in water/DMSO to achieve required concentrations (as stated in respective figure labels/legends) with DMSO concentrations not exceeding 0.01%. Drug sources are indicated in table under ‘CIVO microinjection studies’. Cells were harvested at experimental time points: 2, 6, or 24 hours post treatment as indicated in respective figures, first by washing cells twice in ice-cold PBS in 15 ml falcon tubes, centrifugation at 1000 rpm for 5 mins followed by lysis of the respective cell pellets as described in section below. Note: Drug resistant NUDHL1 Dox 1000 nM and Toledo Dox 1000 nM cell lines were generated at Presage by culturing parental lines in media with stepwise increments in Doxorubicin concentration over several passages. […]
Protein lysates were prepared by adding ice-cold 1×RIPA Buffer (from 10×, Millipore) with 1×-3× Halt protease and phosphatase inhibitor cocktail (100×, Pierce) to cell pellets, followed by pulse sonication (˜3-5 secs) three times. […] Protein samples were quantified using Bradford assay (Biorad) at 1:10 or higher dilutions using appropriate blank controls with 1×RIPA. […]

[2] = system: SKM1 AML xenografts; assay: Xenograft tumor growth; format: in vivo, NOD SCID; details: Voruciclib 200 mpk PO, ABT 199 10 mpk PO, 6 on/1 off; by day 22
Method: Mice were enrolled for study when tumors reached an average volume of 150-200 mm^3. Tumor volume was calculated as V=length×width×height, all three dimensions measured using digital calipers along with body weight. Animals were removed from the study when—any one of the three measured dimensions of the tumor exceeding 2 cm, volume exceeding 2500 mm^3, ulceration or body weight loss greater than 20%.

[3] = system: DLBCL xenograft tumors (OCILY10); assay: MCL1 expression in xenograft tumors after oral dosing; format: in vivo, mice; details: 100 mpk, oral gavage daily for 5 days, 4 h post final dose
Method: Protein lysates were prepared by adding ice-cold 1×RIPA Buffer (from 10×, Millipore) with 1×-3× Halt protease and phosphatase inhibitor cocktail (100×, Pierce) to cell pellets, followed by pulse sonication (˜3-5 secs) three times. Lysates were cleared by centrifugation at 14K rpm for 15-20 mins and the supernatant (lysate) was collected for further analysis. To prepare lysates from cryopreserved xenograft tumor tissue, tissue was first homogenized using a hand-held tissue homogenizer (Cole Palmer) in above lysis buffer followed by pulse sonication and centrifugation as described above. Above steps were carried out under ice cold conditions. Protein samples were quantified using Bradford assay (Biorad) at 1:10 or higher dilutions using appropriate blank controls with 1×RIPA. 20-25 micrograms of protein from each sample were subject to SDS-PAGE using BOLT 4-12% Bis-Tris gels (Thermofisher) and transferred to either 0.45 or 0.2 micron pore size membranes (as applicable based on protein molecular size), and either nitrocellulose (NC) or pvdf (Thermofisher) using manufacturer's protocol, blocked for one hour in 5% milk at room temperature, probed with primary antibodies (Table 2) at 4 deg C. overnight and corresponding HRP-conjugated secondary antibodies (Jackson Immunoresearch, 1:10,000-1:20,000 dilutions) for 1 hour at room temperature. […]

[4] = system: NudHL1 DLBCL xenografts; assay: CIVO microinjection, CC3 staining after 6 hours; format: in vivo, mice; details: treated for 6 hours
Method: Mice were enrolled into CIVO drug studies when the tumor volume reached approximately 1000 mm^3. Microinjection studies were performed using the CIVO device as previously described (Klinghoffer et al, Science Translational Medicine 2015) The device was configured with 6 injection needles set for a 6 mm injection length and a total volume delivery of 3 μl. A fluorescent tracking marker (FTM) was added to each drug reservoir in vehicle for delivery along with each drug or drug combination. […] Total amounts of agents injected are tabulated below in Table 4.
FIGS. 9A-9D depict cells that were treated as above and stained for cleaved caspase-3 (CC3) as a marker of apoptosis (shown in red).
FIGS. 10A-10D depict cells that were treated as above and stained for cleaved caspase-3 (CC3) as a marker of apoptosis (shown in red).

[5] = system: Toledo cells; assay: CIVO microinjection, CC3 expression; set-up: species or system mice; details: mouse, in vivo
Method: (§1) Mice were enrolled into CIVO drug studies when the tumor volume reached approximately 1000 mm^3. Microinjection studies were performed using the CIVO device as previously described (Klinghoffer et al, Science Translational Medicine 2015) The device was configured with 6 injection needles set for a 6 mm injection length and a total volume delivery of 3 μl. A fluorescent tracking marker (FTM) was added to each drug reservoir in vehicle for delivery along with each drug or drug combination. All micro-doses were equivalent to or lower than what would be allowed under FDA guidelines for Exploratory IND (Investigational New Drug) studies and by solubility of drug into vehicle. Total amounts of agents injected are tabulated below in Table 4.

[6] = system: RIVA cells; assay: CIVO microinjection, CC3 expression; set-up: species or system mice; details: mouse, in vivo
Method: as §1

[7] = system: HCC1187 cells; assay: PCR assay of XBP1 transcription; format: cell-based; details: Voruciclib 1.5 uM, Bortezomib 10 nM, 4 hours
Method: 1 ug of mRNA from each condition was used to generate cDNA using the High Capacity cDNA Reverse Transcription Kit (Applied Biosystems) and manufacturer's protocol. 100 ng cDNA was used to conduct a PCR assay to amplify XBP1 u or splice forms (Thermofisher PCR Supermix)—94 deg C. for 2 mins, (94 deg C. for 15 secs, 55 deg C. for 30 secs, 72 deg C. for 1 min)×30 cycles, 72 deg C. for 7 mins, hold at 4 deg C. XBP1 spiced and unspliced variants were detected.

[8] = system: RIVA (activated B-cell, or ABC) model of DLBCL; assay: Xenograft tumor growth; format: in vivo, NOD SCID mice; details: Voruciclib 200 mpk, Venetoclax 1 mpk
Method: Immune deficient NOD SCID mice were implanted with the RIVA (activated B-cell, or ABC) model of DLBCL. The xenografted tumors were allowed to grow in the NOD SCID host until they reached 200 mm^3, at which point the xenografted animals were randomized into 4 study groups: 1. Vehicle control; 2. […] Venetoclax at 1 mpk; and 4. […] Venetoclax was dosed by oral gavage on days 1 and 4 of each weekly cycle. Drug effects were assessed via tumor volume measurements twice weekly by a technician blinded to the treatment of each subject in the study. N=5-6 animals per treatment arm.

SMILES: CN1CC[C@@H](c2c(O)cc(O)c3c(=O)cc(-c4ccc(C(F)(F)F)cc4Cl)oc23)[C@@H]1CO (relative stereo) [voruciclib, (+)-trans-2-(2-Chloro-4-trifluoromethylphenyl)-5,7-dihydroxy-8-(2-hydroxymethyl-1-methylpyrrolidin-3-yl)-chromen-4-one]
- MCL-1 [1]: suppresses
- apoptosis (cPARP) [1]: increases as the concentration of voruciclib increases
- normalized tumor volume [2]: slightly lower
- MCL1 expression in xenograft tumors [3]: suppressed
- CC3 expression [4]: little to no increase
- CC3 expression [5]: slight effect
- CC3 expression [6]: slight effect
- bortezomib-induced transcriptional induction of XBP1 [7]: decreased
- tumor size (images) [8]: smaller
- average tumor volume ([8]; oral gavage): decrease in tumor volume

From US12171744B2, “Pharmaceutical combinations for the treatment of cancer” (Presage Biosciences, Inc., priority 2016, dated 2024)
